“And” between values parts separate entries of the source, which are not always exact repeats. Equal values may be shown once.
Key:
[1] = refractive index (Na D-line) (dimensionless); conditions: 101.33 kPa, Liquid
[2] = 101.33 kPa, Liquid
[3] = xn = mol fraction of the nth substance listed; conditions: 101.33 kPa, Liquid
[4] = refractive index (Na D-line) (dimensionless); xn = mol fraction of the nth substance listed; conditions: 101.33 kPa, Liquid

CCOC(=O)CC(C)=O [ethyl 3-oxobutanoate]
Conditions	mass density, 298.15 K [kg/m3]	mass density, 303.15 K [kg/m3]	mass density, 308.15 K [kg/m3]	refractive index, 298.15 K	refractive index, 303.15 K	refractive index, 308.15 K	speed of sound, 298.15 K [m/s]	viscosity, 298.15 K [mPa·s]	viscosity, 303.15 K [mPa·s]	viscosity, 308.15 K [mPa·s]
[1]	–	–	–	1.4166	1.4145	1.412	–	–	–	–
[2]	1020.9	1014.9	1010.2	–	–	–	1331	1.48	1.339	1.239

CCOC(=O)c1ccccc1C(=O)OCC [diethyl phthalate]
Conditions	mass density, 298.15 K [kg/m3]	mass density, 303.15 K [kg/m3]	mass density, 308.15 K [kg/m3]	refractive index, 298.15 K	refractive index, 303.15 K	refractive index, 308.15 K	speed of sound, 298.15 K [m/s]	viscosity, 298.15 K [mPa·s]	viscosity, 303.15 K [mPa·s]	viscosity, 308.15 K [mPa·s]
[1]	–	–	–	1.5001	1.4978	1.4958	–	–	–	–
[2]	1115.1	1110.2	1105.6	–	–	–	1446	7.926	6.129	4.893

CCOC(=O)c1ccccc1C(=O)OCC [diethyl phthalate] + C1COCCO1
Conditions	mass density, 298.15 K [kg/m3]	mass density, 303.15 K [kg/m3]	mass density, 308.15 K [kg/m3]	refractive index, 298.15 K	refractive index, 303.15 K	refractive index, 308.15 K	speed of sound, 298.15 K [m/s]	viscosity, 298.15 K [mPa·s]	viscosity, 303.15 K [mPa·s]	viscosity, 308.15 K [mPa·s]
[3], x2 = 0	1115.1	1110.2	1105.6	–	–	–	1446	7.926	6.129	4.893
[3], x2 = 0.1133	1110.7	1105.8	1101	–	–	–	1435	6.52	5.327	4.134
[3], x2 = 0.2083	1106.5	1101.5	1096.6	–	–	–	1427	5.536	4.567	3.597
[3], x2 = 0.3086	1101.4	1096.3	1091.4	–	–	–	1418	4.593	3.813	3.032
[3], x2 = 0.409	1095.5	1090.4	1085.3	–	–	–	1408	3.793	3.18	2.568
[3], x2 = 0.5026	1089.1	1084	1078.7	–	–	–	1399	3.122	2.637	2.151
[3], x2 = 0.5985	1081.4	1076.1	1070.9	–	–	–	1390	2.544	2.184	1.824
[3], x2 = 0.702	1071.6	1066.1	1060.8	–	–	–	1380	2.037	1.753	1.468
[3], x2 = 0.8001	1060.2	1054.7	1049.2	–	–	–	1370	1.641	1.436	1.23
[3], x2 = 0.8975	1046.3	1040.7	1035	–	–	–	1359	1.319	1.18	1.042
[4], x2 = 0	–	–	–	1.5001	1.4978	1.4958	–	–	–	–
[4], x2 = 0.1133	–	–	–	1.4962	1.494	1.4917	–	–	–	–
[4], x2 = 0.2083	–	–	–	1.4924	1.4902	1.4882	–	–	–	–
[4], x2 = 0.3086	–	–	–	1.4882	1.486	1.4837	–	–	–	–
[4], x2 = 0.409	–	–	–	1.4826	1.4805	1.4783	–	–	–	–
[4], x2 = 0.5026	–	–	–	1.4768	1.4747	1.4724	–	–	–	–
[4], x2 = 0.5985	–	–	–	1.47	1.4676	1.4653	–	–	–	–
[4], x2 = 0.702	–	–	–	1.4608	1.4585	1.4564	–	–	–	–
[4], x2 = 0.8001	–	–	–	1.4504	1.4481	1.4457	–	–	–	–
[4], x2 = 0.8975	–	–	–	1.4376	1.435	1.4326	–	–	–	–

C1COCCO1 [1,4-dioxane] + CCOC(=O)c1ccccc1C(=O)OCC
x1 = 1
Conditions	mass density, 298.15 K [kg/m3]	mass density, 303.15 K [kg/m3]	mass density, 308.15 K [kg/m3]	refractive index, 298.15 K	refractive index, 303.15 K	refractive index, 308.15 K	speed of sound, 298.15 K [m/s]	viscosity, 298.15 K [mPa·s]	viscosity, 303.15 K [mPa·s]	viscosity, 308.15 K [mPa·s]
[3]	1027.6	1021.9	1016.2	–	–	–	1347	1.167	1.069	0.984
[4]	–	–	–	1.4202	1.417	1.4144	–	–	–	–

CCCCCCCCOC(=O)c1ccccc1C(=O)OCCCCCCCC [dioctyl 1,2-benzenedicarboxylate]
Conditions	mass density, 298.15 K [kg/m3]	mass density, 303.15 K [kg/m3]	mass density, 308.15 K [kg/m3]	refractive index, 298.15 K	refractive index, 303.15 K	refractive index, 308.15 K	speed of sound, 298.15 K [m/s]	viscosity, 298.15 K [mPa·s]	viscosity, 303.15 K [mPa·s]	viscosity, 308.15 K [mPa·s]
[1]	–	–	–	1.485	1.4831	1.481	–	–	–	–
[2]	980.7	977.1	973.1	–	–	–	1421	43.03	30.18	21.88

C1COCCO1 [1,4-dioxane] + CCCCCCCCOC(=O)c1ccccc1C(=O)OCCCCCCCC
x1 = 1
Conditions	mass density, 298.15 K [kg/m3]	mass density, 303.15 K [kg/m3]	mass density, 308.15 K [kg/m3]	refractive index, 298.15 K	refractive index, 303.15 K	refractive index, 308.15 K	speed of sound, 298.15 K [m/s]	viscosity, 298.15 K [mPa·s]	viscosity, 303.15 K [mPa·s]	viscosity, 308.15 K [mPa·s]
[3]	1027.6	1021.9	1016.2	–	–	–	1348	1.166	1.069	0.984
[4]	–	–	–	1.4202	1.417	1.4144	–	–	–	–

CCOC(=O)C(=O)OCC [diethyl ethanedioate]
Conditions	mass density, 298.15 K [kg/m3]	mass density, 303.15 K [kg/m3]	mass density, 308.15 K [kg/m3]	refractive index, 298.15 K	refractive index, 303.15 K	refractive index, 308.15 K	speed of sound, 298.15 K [m/s]	viscosity, 298.15 K [mPa·s]	viscosity, 303.15 K [mPa·s]	viscosity, 308.15 K [mPa·s]
[1]	–	–	–	1.4084	1.406	1.4034	–	–	–	–
[2]	1072.9	1066.2	1060.8	–	–	–	1276	1.759	1.581	1.437

C1COCCO1 [1,4-dioxane] + CCOC(=O)CC(C)=O
x1 = 1
Conditions	mass density, 298.15 K [kg/m3]	mass density, 303.15 K [kg/m3]	mass density, 308.15 K [kg/m3]	refractive index, 298.15 K	refractive index, 303.15 K	refractive index, 308.15 K	speed of sound, 298.15 K [m/s]	viscosity, 298.15 K [mPa·s]	viscosity, 303.15 K [mPa·s]	viscosity, 308.15 K [mPa·s]
[3]	1027.6	1021.9	1016.2	–	–	–	1347	1.166	1.069	0.984
[4]	–	–	–	1.4201	1.417	1.4144	–	–	–	–

C1COCCO1 [1,4-dioxane] + CCOC(=O)C(=O)OCC
x1 = 1
Conditions	mass density, 298.15 K [kg/m3]	mass density, 303.15 K [kg/m3]	mass density, 308.15 K [kg/m3]	refractive index, 298.15 K	refractive index, 303.15 K	refractive index, 308.15 K	speed of sound, 298.15 K [m/s]	viscosity, 298.15 K [mPa·s]	viscosity, 303.15 K [mPa·s]	viscosity, 308.15 K [mPa·s]
[3]	1027.6	1021.9	1016.2	–	–	–	1348	1.167	1.069	0.984
[4]	–	–	–	1.4202	1.417	1.4144	–	–	–	–

C1COCCO1 [1,4-dioxane]
Conditions	mass density, 298.15 K [kg/m3]	mass density, 303.15 K [kg/m3]	mass density, 308.15 K [kg/m3]	refractive index, 298.15 K	refractive index, 303.15 K	refractive index, 308.15 K	speed of sound, 298.15 K	viscosity, 298.15 K	viscosity, 303.15 K [mPa·s]	viscosity, 308.15 K [mPa·s]
[1]	–	–	–	1.4201 and 1.4202	1.417	1.4144	–	–	–	–
[2]	1027.6	1021.9	1016.2	–	–	–	1347 m/s and 1348 m/s	1.166 mPa·s and 1.167 mPa·s	1.069	0.984

CCCCCCCCOC(=O)c1ccccc1C(=O)OCCCCCCCC [dioctyl 1,2-benzenedicarboxylate] + C1COCCO1
Conditions	mass density, 298.15 K [kg/m3]	mass density, 303.15 K [kg/m3]	mass density, 308.15 K [kg/m3]	refractive index, 298.15 K	refractive index, 303.15 K	refractive index, 308.15 K	speed of sound, 298.15 K [m/s]	viscosity, 298.15 K [mPa·s]	viscosity, 303.15 K [mPa·s]	viscosity, 308.15 K [mPa·s]
[3], x2 = 0	980.7	977.1	973.1	–	–	–	1421	43.03	30.18	21.88
[3], x2 = 0.1337	982.2	978.3	974.4	–	–	–	1416	32.58	24.97	17.36
[3], x2 = 0.2243	983.4	979.4	975.2	–	–	–	1412	26.39	20.41	14.44
[3], x2 = 0.3207	984.8	980.5	976.4	–	–	–	1406	20.73	16.1	11.47
[3], x2 = 0.4226	986.5	982.2	977.8	–	–	–	1400	15.4	12.12	8.836
[3], x2 = 0.5169	988.4	983.9	979.6	–	–	–	1394	11.02	8.852	6.689
[3], x2 = 0.6054	990.7	986.3	981.9	–	–	–	1388	8.056	6.528	5.001
[3], x2 = 0.7161	995	990.5	985.9	–	–	–	1379	4.947	4.096	3.246
[3], x2 = 0.8031	1000.2	995.4	990.6	–	–	–	1372	3.213	2.717	2.222
[3], x2 = 0.9017	1009.9	1004.6	999.5	–	–	–	1361	1.863	1.612	1.361
[4], x2 = 0	–	–	–	1.485	1.4831	1.481	–	–	–	–
[4], x2 = 0.1337	–	–	–	1.4836	1.4819	1.4804	–	–	–	–
[4], x2 = 0.2243	–	–	–	1.4822	1.4798	1.4775	–	–	–	–
[4], x2 = 0.3207	–	–	–	1.4812	1.4784	1.4756	–	–	–	–
[4], x2 = 0.4226	–	–	–	1.4781	1.4771	1.4762	–	–	–	–
[4], x2 = 0.5169	–	–	–	1.4733	1.4717	1.47	–	–	–	–
[4], x2 = 0.6054	–	–	–	1.4692	1.4673	1.4652	–	–	–	–
[4], x2 = 0.7161	–	–	–	1.463	1.461	1.46	–	–	–	–
[4], x2 = 0.8031	–	–	–	1.4566	1.4541	1.4516	–	–	–	–
[4], x2 = 0.9017	–	–	–	1.4422	1.4401	1.4379	–	–	–	–

Reference: the NIST ThermoML archive (doi:10.1021/je0301489)
